The target of series [1] is T1, MAO-B (Homo sapiens, UniProt P27338).
T1 sequence (P27338 1-520): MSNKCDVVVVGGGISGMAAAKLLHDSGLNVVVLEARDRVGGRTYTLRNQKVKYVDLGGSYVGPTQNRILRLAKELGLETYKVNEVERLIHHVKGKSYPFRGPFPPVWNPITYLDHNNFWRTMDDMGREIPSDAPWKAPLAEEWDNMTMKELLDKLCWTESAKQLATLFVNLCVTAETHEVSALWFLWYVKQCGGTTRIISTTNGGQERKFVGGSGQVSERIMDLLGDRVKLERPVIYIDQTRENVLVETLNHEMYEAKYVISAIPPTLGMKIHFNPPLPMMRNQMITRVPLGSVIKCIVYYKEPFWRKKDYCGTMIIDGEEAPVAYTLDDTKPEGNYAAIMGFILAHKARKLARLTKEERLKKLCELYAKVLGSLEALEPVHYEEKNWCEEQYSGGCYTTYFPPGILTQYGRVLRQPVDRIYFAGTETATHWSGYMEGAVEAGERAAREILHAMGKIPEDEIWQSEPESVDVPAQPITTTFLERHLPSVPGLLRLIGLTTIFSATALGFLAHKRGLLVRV
As to the kind of experiment: Reversibility of MAO-B inhibition by dialysis. Type of series: biochemical. Details: purchased Sigma-Aldrich. As to conditions: for Reversibility of MAO-B inhibition: dialysis, compared with safinamide and pargyline.

The target of series [2] is T1, MAO-B. As to conditions: ratio of IC50 values within the S series.
In series [3] the target is T1, MAO-B. As to the kind of experiment: biochemical. The following applies: for remaining activity at 10 µM: read-out: Residual Activity at 10 µM (%) MAO-B.
The target in another series is T2, hMAO-A (Homo sapiens, UniProt P21397).
T2 sequence (P21397 1-527): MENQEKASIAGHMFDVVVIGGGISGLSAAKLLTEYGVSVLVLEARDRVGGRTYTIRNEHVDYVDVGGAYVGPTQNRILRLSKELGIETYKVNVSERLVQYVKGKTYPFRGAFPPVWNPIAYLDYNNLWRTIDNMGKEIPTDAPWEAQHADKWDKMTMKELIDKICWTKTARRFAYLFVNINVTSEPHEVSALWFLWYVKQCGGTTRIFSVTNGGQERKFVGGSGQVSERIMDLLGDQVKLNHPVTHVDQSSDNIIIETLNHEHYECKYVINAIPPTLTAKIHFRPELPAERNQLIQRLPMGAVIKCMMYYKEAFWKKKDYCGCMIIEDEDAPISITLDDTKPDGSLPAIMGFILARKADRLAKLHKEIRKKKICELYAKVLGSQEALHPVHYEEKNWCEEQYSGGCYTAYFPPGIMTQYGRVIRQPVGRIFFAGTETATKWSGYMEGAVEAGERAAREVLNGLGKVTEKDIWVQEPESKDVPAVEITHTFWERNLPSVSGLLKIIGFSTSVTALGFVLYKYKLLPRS
Kind of series: Inhibition of recombinant hMAO-A, kynuramine substrate, continuous absorbance method. The following applies: for remaining activity at 10 µM: read-out: Residual Activity at 10 µM (%) MAO-A.

Series [4] addresses T1, MAO-B. As to the kind of experiment: MAO-B inhibition kinetics (Lineweaver-Burk and secondary plots). Format: biochemical. Further details: purchased Sigma-Aldrich. The following applies: for Type of MAO-B inhibition: LB plots, five substrate and three inhibitor concentrations; for Ki: secondary plot of LB slopes, benzylamine substrate.
Series [5] can be described thus: PAMPA for blood-brain barrier permeation. Type of series: in vitro ADME. As to conditions: for Experimental Pe / Papp: PAMPA-BBB, pH 7.4; for Papp: read-out: Experimental Pe. For orientation: PAMPA measures passive passage across an artificial lipid membrane.
In series [6] the test system is MAO-B. As to conditions: cited from earlier work.

`O=C(Cn1nc(N2CCC(Cc3ccccc3)CC2)ccc1=O)NN=Cc1cccc(Cl)c1` [Compound S5, N′-3-chlorobenzylidene-2-(3-(4-benzylpiperidin-1-yl)-6-oxopyridazin-1(6H)-yl)acetohydrazide]: on MAO-B [1], the “Reversibility of MAO-B inhibition” value is reported as “reversible”. In addition, the “Times higher MAO-B inhibition than other derivatives” value on MAO-B [2] is 4.82–53.94 times. On MAO-B [3], half-maximal inhibition (IC50) required 203 ± 4 nM and the remaining activity at 10 µM is -24.6 ± 8.51%. At hMAO-A, the IC50 – broadly, the concentration that inhibits the measured activity by half – came out at 3.86 ± 0.77 µM and the remaining activity at 10 µM amounted to 25.6 ± 3.85%. In addition, on MAO-B [4], the “Type of MAO-B inhibition” value is listed as “competitive” and the affinity, expressed as Ki, was 155 ± 50 nM. Further, in series [5], the “Experimental Pe” value is 5.75e-06 cm/s and the Papp is 5.75 ± 0.13 ×10⁻⁶ cm/s. In addition, the “Prediction (BBB permeation class)” value in series [5] (class from Pe) is recorded as “CNS+ (Pe (10^−6 cm·s^−1) > 4.00: CNS+ (high permeation))”.
In the case of `N#Cc1ccccc1C=NNC(=O)Cn1nc(N2CCC(Cc3ccccc3)CC2)ccc1=O` [Compound S16, N′-2-cyanobenzylidene-2-(3-(4-benzylpiperidin-1-yl)-6-oxopyridazin-1(6H)-yl)acetohydrazide], the “Reversibility of MAO-B inhibition” value at MAO-B [1] is given as “reversible”. For the same compound, at MAO-B [3], the midpoint of inhibition, the IC50, lay at 979 ± 206 nM and the remaining activity at 10 µM was -12.9 ± 1.14%. For the same compound, at hMAO-A, the half-maximal inhibitory concentration (IC50) turned out to be 6.15 ± 0.305 µM and the remaining activity at 10 µM came to 33.2 ± 9.25%. For the same compound, on MAO-B [4], the “Type of MAO-B inhibition” value was “competitive” and the Ki – broadly, a measure of affinity in units of concentration, obtained from inhibition or displacement – worked out at 721 ± 74 nM. In series [5], the “Experimental Pe” value is 3.78e-06 cm/s and the Papp was determined as 3.78 ± 0.2 ×10⁻⁶ cm/s.
For the compound `C[C@H](NCc1ccc(OCc2cccc(F)c2)cc1)C(N)=O` [Safinamide, reference compound], the activity on MAO-B [1] (about 2.0 times IC50 (S5 0.4 μM, S16 2.0 μM), 30 min pre-incubation, read-out: Residual MAO-B activity before recovery, undialyzed (AU)) came to 28.3%. Further, the values for the remaining activity at 10 µM at MAO-B [3] and at hMAO-A were -15.6 ± 0.86% and 69 ± 1.36%, respectively.
Take `O=C(Cn1nc(N2CCOCC2)ccc1=O)NN=Cc1ccc(Cl)cc1` [TR16]: in the series on MAO-B [6], the IC50 was 170 nM.

The record behind these values is PMC11243598, “Inhibition of Monoamine Oxidases by Pyridazinobenzylpiperidine Derivatives” (Molecules, 2024).
